This note sets out measurements from patent US8455475B2 (Gruenenthal GmbH, priority 2009, dated 2013).

In the first experiment the target is T1, rat B1R (bradykinin receptor 1) (Rattus norvegicus, UniProt P97583).
T1 construct: expressed in transfected cells; host or cells: CHO K1 cells
T1 sequence (P97583 1-337): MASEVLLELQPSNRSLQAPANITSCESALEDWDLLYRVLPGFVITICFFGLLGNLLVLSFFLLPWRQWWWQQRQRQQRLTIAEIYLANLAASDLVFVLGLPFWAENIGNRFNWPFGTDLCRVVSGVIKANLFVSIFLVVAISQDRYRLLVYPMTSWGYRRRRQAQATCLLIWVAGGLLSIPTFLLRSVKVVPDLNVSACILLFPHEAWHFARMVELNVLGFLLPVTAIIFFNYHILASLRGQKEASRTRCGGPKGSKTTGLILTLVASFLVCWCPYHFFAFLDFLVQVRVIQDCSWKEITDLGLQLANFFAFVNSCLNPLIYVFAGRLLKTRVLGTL
Nature of the experiment: FLIPR Ca2+ assay (Fluo-4) on CHO K1 cells stably transfected with the B1R gene of the rat (rB1R cells): % inhibition at 10 μM / IC50, agonist Des-Arg9-bradykinin. Format: cell-based. The conditions noted are these: CHO-K1, rat B1R. Here is the method: The agonistic or antagonistic action of substances can be quantified on the bradykinin receptor 1 (B1R) of the human and rat species with ectopically expressing cell lines (CHO K1 cells) and with the aid of a Ca^2+-sensitive dyestuff (Fluo-4) in a fluorescent imaging plate reader (FLIPR). The figure in % activation is based on the Ca^2+ signal after addition of Lys-Des-Arg^9-bradykinin (0.5 nM) or Des-Arg^9-bradykinin (100 nM). Antagonists lead to a suppression of the Ca^2+ inflow after addition of the agonist. % inhibition compared with the maximum achievable inhibition is stated.
The agonistic or antagonistic action of substances can be determined on the bradykinin receptor 1 (B1R) of the human and rat species with the following assay. In accordance with this assay, the Ca^2+ inflow through the channel is quantified with the aid of a Ca^2+-sensitive dyestuff (type Fluo-4, Molecular Probes Europe BV, Leiden, Holland) in a fluorescent imaging plate reader (FLIPR, Molecular Devices, Sunnyvale, USA).
Chinese hamster ovary cells (CHO K1 cells) transfected stably with the human B1R gene (hB1R cells) or the B1R gene of the rat (rB1R cells) are used. For functional studies, these cells are plated out on black 96-well plates with a clear base (BD Biosciences, Heidelberg, Germany or Greiner, Frickenhausen, Germany) in a density of 20,000-35,000 cells/well. The cells are left overnight at 37° C. and 5% CO2 in culture medium (hB1R cells: Nutrient Mixture Ham's F12, Gibco Invitrogen GmbH, Karlsruhe, Germany or DMEM, Sigma-Aldrich, Taufkirchen, Germany; rB1R cells: D-MEM/F12, Gibco Invitrogen GmbH, Karlsruhe, Germany) with 10 vol. % FBS (foetal bovine serum, Gibco Invitrogen GmbH, Karlsruhe, Germany or PAN Biotech GmbH, Aidenbach, Germany). On the following day, the cells are loaded for 60 min at 37° C. with 2.13 μM Fluo-4 (Molecular Probes Europe BV, Leiden Holland) in HBSS buffer (Hank's buffered saline solution, Gibco Invitrogen GmbH, Karlsruhe, Germany) with 2.5 mM probenecid (Sigma-Aldrich, Taufkirchen, Germany) and 10 mM HEPES (Sigma-Aldrich, Taufkirchen, Germany). The plates are then washed 2× with HBSS buffer, and HBSS buffer which additionally contains 0.1% BSA (bovine serum albumin; Sigma-Aldrich, Taufkirchen, Germany), 5.6 mM glucose and 0.05% gelatine (Merck KGaA, Darmstadt, Germany) is added. After a further incubation of 20 minutes at room temperature, the plates are inserted into the FLIPR for the Ca^2+ measurement. Alternatively, the plates are washed with buffer A (15 mM HEPES, 80 mM NaCl, 5 mM KCl, 1.2 mM CaCl2, 0.7 mM MgSO4, 2 g/l glucose, 2.5 mM probenecid), buffer A is added and the plates are loaded with 2.5 μM Fluo-4 and 0.025% Pluronic F127 (Sigma-Aldrich, Taufkirchen, Germany). Thereafter, the cells are washed 2× with buffer A and incubated for 30 minutes at room temperature with buffer A, which additionally contains 0.05% BSA and 0.05% gelatine, and thereafter inserted into the FLIPR for the Ca^2+ measurement. The Ca^2+-dependent fluorescence is measured here before and after addition of substances (λex=488 nm, λem=540 nm). Quantification is by measurement of the highest fluorescence intensity (FC, fluorescence counts) over time.
The FLIPR protocol consists of 2 additions of substance. Test substances (10 μM) are first pipetted on to the cells and the Ca^2+ inflow is compared with the control (hB1R: Lys-Des-Arg^9-bradykinin>=50 nM; rB1R: Des-Arg^9-bradykinin 10 μM). This gives the result in % activation based on the Ca^2+ signal after addition of Lys-Des-Arg^9-bradykinin (>=50 nM) or Des-Arg^9-bradykinin (10 μM). After incubation for 10-20 minutes, Lys-Des-Arg^9-bradykinin (hB1R) or Des-Arg^9-bradykinin (rB1R) in the concentration of the EC80 is applied and the inflow of Ca^2+ is likewise determined. Antagonists lead to a suppression of the Ca^2+ inflow. % inhibition compared with the maximum achievable inhibition is calculated.
For determination of the IC50 value, the substances are added in various concentrations. […]
In general, inhibition refers to the relative decrease from the control value, in per cent. For `COc1ccc(C(=O)N(C)C2CCc3ccc(C(=O)N4CCC5(CC4)CCN(c4ccncc4)CC5)cc32)c(Cl)c1` (centres unmarked) [IND_CC-201, 2-Chloro-4-methoxy-N-methyl-N-[6-(9-pyridin-4-yl-3,9-diazaspiro[5.5]undecane-3-carbonyl)-2,3-dihydro-1H-inden-1-yl]-benzamide], the inhibition at 10 µM was 99%.

As to `COc1ccc(C(=O)NC2CCc3ccc(C(=O)N4CCC5(CC4)CCN(c4ccncc4)CC5)cc32)c(Cl)c1` (centres unmarked) [IND_CC-211, 2-Chloro-4-methoxy-N-[6-(9-pyridin-4-yl-3,9-diazaspiro[5.5]undecane-3-carbonyl)-2,3-dihydro-1H-inden-1-yl]-benzamide], the inhibition at 10 µM is 104%.

Consider `COc1ccc(C(=O)NC2CCc3ccc(C(=O)N4CCC5(CC4)CCN(c4ccc(C(F)(F)F)cc4)CC5)cc32)c(Cl)c1` (centres unmarked) [IND_CC-213, 2-Chloro-4-methoxy-N-[6-[9-[4-(trifluoromethyl)-phenyl]-3,9-diazaspiro[5.5]undecane-3-carbonyl]-2,3-dihydro-1H-inden-1-yl]-benzamide], for which the inhibition at 10 µM is 73%.

Take `O=C(NC1CCc2ccc(C(=O)N3CCC4(CC3)CCN(c3ccc(C(F)(F)F)cc3)CC4)cc21)c1cc(F)ccc1Cl` (centres unmarked) [IND_CC-222, 2-Chloro-5-fluoro-N-[6-[9-[4-(trifluoromethyl)-phenyl]-3,9-diazaspiro[5.5]undecane-3-carbonyl]-2,3-dihydro-1H-inden-1-yl]-benzamide]: the inhibition at 10 µM came out at 60%.

With `Cc1cccc(Cl)c1S(=O)(=O)N(C)C1CCc2ccc(C(=O)N3CCC4(CC3)CCN(c3ccncc3)CC4)cc21` (centres unmarked) [IND_CC-227, 2-Chloro-N,6-dimethyl-N-[6-(9-pyridin-4-yl-3,9-diazaspiro[5.5]undecane-3-carbonyl)-2,3-dihydro-1H-inden-1-yl]-benzenesulfonic acid amide], the inhibition at 10 µM was found to be 97%.

On to `O=C(NC1CCc2ccc(C(=O)N3CCC4(CC3)CCN(c3ccc(C(F)(F)F)cc3)CC4)cc21)c1cc(F)c(F)cc1Cl` (centres unmarked) [IND_CC-230, 2-Chloro-4,5-difluoro-N-[6-[9-[4-(trifluoromethyl)-phenyl]-3,9-diazaspiro[5.5]undecane-3-carbonyl]-2,3-dihydro-1H-inden-1-yl]-benzamide], for which the inhibition at 10 µM was 104%.

Turning to `N#Cc1ccccc1C(=O)NC1CCc2ccc(C(=O)N3CCC4(CC3)CCN(c3ccc(C(F)(F)F)cc3)CC4)cc21` (centres unmarked) [IND_CC-235, 2-Cyano-N-[6-[9-[4-(trifluoromethyl)-phenyl]-3,9-diazaspiro[5.5]undecane-3-carbonyl]-2,3-dihydro-1H-inden-1-yl]-benzamide], the inhibition at 10 µM worked out at 89%.

`Cc1cccc(Cl)c1S(=O)(=O)NC1CCc2ccc(C(=O)N3CCC4(CC3)CCN(c3ccc(C(F)(F)F)cc3)CC4)cc21` (centres unmarked) [IND_CC-239, 2-Chloro-6-methyl-N-[6-[9-[4-(trifluoromethyl)-phenyl]-3,9-diazaspiro[5.5]-undecane-3-carbonyl]-2,3-dihydro-1H-inden-1-yl]-benzenesulfonic acid amide]: the inhibition at 10 µM came to 71%.

In the case of `O=C(NC1CCc2ccc(C(=O)N3CCC4(CC3)CCN(c3ccc(C(F)(F)F)cc3)CC4)cc21)c1c(Cl)cccc1Cl` (centres unmarked) [IND_CC-286, 2,6-Dichloro-N-[6-[9-[4-(trifluoromethyl)-phenyl]-3,9-diazaspiro[5.5]undecane-3-carbonyl]-2,3-dihydro-1H-inden-1-yl]-benzamide], the inhibition at 10 µM was 90%.

`COc1ccc(C(=O)NC2CCc3ccc(C(=O)N4CCC5(CC4)CCN(c4ccncc4)CC5)cc32)c(F)c1` (centres unmarked) [IND_CC-297, 2-Fluoro-4-methoxy-N-[6-(9-pyridin-4-yl-3,9-diazaspiro[5.5]undecane-3-carbonyl)-2,3-dihydro-1H-inden-1-yl]-benzamide]: the inhibition at 10 µM came out at 107%.

`COc1ccc(C(=O)NC2CCc3ccc(C(=O)N4CCC5(CC4)CCN(c4ccncc4)C5)cc32)c(F)c1` (centres unmarked) [IND_CC-298, 2-Fluoro-4-methoxy-N-[6-(2-pyridin-4-yl-2,8-diazaspiro[4.5]decane-8-carbonyl)-2,3-dihydro-1H-inden-1-yl]-benzamide]: the inhibition at 10 µM was found to be 74%.

For the compound `Cc1cc(OC(F)(F)F)ccc1C(=O)NC1CCc2ccc(C(=O)N3CCC4(CC3)CCN(c3ccncc3)CC4)cc21` (centres unmarked) [IND_CC-300, 2-Methyl-N-[6-(9-pyridin-4-yl-3,9-diazaspiro[5.5]undecane-3-carbonyl)-2,3-dihydro-1H-inden-1-yl]-4-(trifluoromethyloxy)-benzamide], the inhibition at 10 µM came to 65%.

On to `Cc1ccc(C(=O)NC2CCc3ccc(C(=O)N4CCC5(CC4)CCN(c4ccncc4)C5)cc32)c(F)c1` (centres unmarked) [IND_CC-306, 2-Fluoro-4-methyl-N-[6-(2-pyridin-4-yl-2,8-diazaspiro[4.5]decane-8-carbonyl)-2,3-dihydro-1H-inden-1-yl]-benzamide], for which the inhibition at 10 µM came to 106%.

In the case of `COc1ccc(C(=O)NC2c3cc(C(=O)N4CCC5(CC4)CCN(c4ccncc4)CC5)ccc3CC2(C)C)c(F)c1` (centres unmarked) [IND_CC-311, N-[2,2-Dimethyl-6-(9-pyridin-4-yl-3,9-diazaspiro[5.5]undecane-3-carbonyl)-1,3-dihydro-inden-1-yl]-2-fluoro-4-methoxy-benzamide], the inhibition at 10 µM is 83%.

As to `COc1ccc(C(=O)NC2CCc3ccc(C(=O)N4CCC5(CCN(c6ccncc6)CC5)C4)cc32)c(F)c1` (centres unmarked) [IND_CC-313, 2-Fluoro-4-methoxy-N-[6-(8-pyridin-4-yl-2,8-diazaspiro[4.5]decane-2-carbonyl)-2,3-dihydro-1H-inden-1-yl]-benzamide], the inhibition at 10 µM amounted to 95%.

The same experiment, now with this note: rat B1R.
Turning to “2,3-Dichloro-N-methyl-N-[6-(9-pyridin-4-yl-3,9-diazaspiro[5.5]undecane-3-carbonyl)-2,3-dihydro-1H-inden-1-yl]-benzenesulfonic acid amide [IND_CC-343]”, the “% Inhibition (rat B1R) at 10 μM” value worked out at 97%.

With “2-Chloro-N-[6-[8-[(2-chloro-4-fluoro-phenyl)-methyl]-2,8-diazaspiro-[4.5]decane-2-carbonyl]-2,3-dihydro-1H-inden-1-yl]-6-fluoro-benzamide [IND_CC-741]”, the “% Inhibition (rat B1R) at 10 μM” value turned out to be 100%.

Take “2-Chloro-N-[6-[9-[(1-methyl-1H-benzotriazol-5-yl)-methyl]-3,9-diazaspiro[5.5]-undecane-3-carbonyl]-2,3-dihydro-1H-inden-1-yl]-5-(trifluoromethyl)-benzamide [IND_CC-697]”: the “% Inhibition (rat B1R) at 10 μM” value came to 98%.

Take “2-Methyl-N-[6-(8-pyridin-4-yl-2,8-diazaspiro[4.5]decane-2-carbonyl)-2,3-dihydro-1H-inden-1-yl]-benzamide [IND_CC-358]”: the “% Inhibition (rat B1R) at 10 μM” value is listed as 104%.

As for “5-Chloro-2-fluoro-N-[6-[8-[3-(3-fluorophenyl)-propyl]-2,8-diazaspiro[4.5]decane-2-carbonyl]-2,3-dihydro-1H-inden-1-yl]-benzamide [IND_CC-674]”, the “% Inhibition (rat B1R) at 10 μM” value was determined as 67%.
